#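 Compound exposure: 48 hours, 5 concentrations, 96-well plates. GI50: concentration for 50% inhibition of growth.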 Active and inactive are the calls of the source. No stated cut-off is given here; in the data, active = GI50 up to about 1.1 µM and inactive = higher.
# What was measured:
# Experiment in all cases: NCI anticancer screen, dose series, 48 h
# 786-0 = system: 786-0
# A498 = system: A498
# A549 = system: A549
# ACHN = system: ACHN
# BT-549 = system: BT-549
# CAKI-1 = system: CAKI-1
# CCRF-CEM = system: CCRF-CEM
# COLO 205 = system: COLO 205
# DU-145 = system: DU-145
# EKVX = system: EKVX
# HCC 2998 = system: HCC 2998
# HCT-116 = system: HCT-116
# HCT-15 = system: HCT-15
# HL-60 = system: HL-60
# HOP-62 = system: HOP-62
# HOP-92 = system: HOP-92
# HT-29 = system: HT-29
# Hs-578T = system: Hs-578T
# IGROV-1 = system: IGROV-1
# K562 = system: K562
# KM12 = system: KM12
# LOX IMVI = system: LOX IMVI
# M14 = system: M14
# MCF7 = system: MCF7
# MDA-MB-231 = system: MDA-MB-231
# MDA-MB-435 = system: MDA-MB-435
# MDA-N = system: MDA-N
# MOLT-4 = system: MOLT-4
# Malme-3M = system: Malme-3M
# NCI-H226 = system: NCI-H226
# NCI-H23 = system: NCI-H23
# NCI-H460 = system: NCI-H460
# NCI-H522 = system: NCI-H522
# NCI/ADR-RES = system: NCI/ADR-RES
# OVCAR-3 = system: OVCAR-3
# OVCAR-4 = system: OVCAR-4
# OVCAR-5 = system: OVCAR-5
# OVCAR-8 = system: OVCAR-8
# PC-3 = system: PC-3
# RPMI-8226 = system: RPMI-8226
# RXF 393 = system: RXF 393
# SF-268 = system: SF-268
# SF-295 = system: SF-295
# SF-539 = system: SF-539
# SK-MEL-28 = system: SK-MEL-28
# SK-MEL-2 = system: SK-MEL-2
# SK-MEL-5 = system: SK-MEL-5
# SK-OV-3 = system: SK-OV-3
# SN12C = system: SN12C
# SNB-19 = system: SNB-19
# SNB-75 = system: SNB-75
# SR = system: SR
# SW-620 = system: SW-620
# T47D = system: T47D
# TK-10 = system: TK-10
# U-251 = system: U-251
# UACC-257 = system: UACC-257
# UACC-62 = system: UACC-62
# UO-31 = system: UO-31
# DMS-114 = system: DMS-114
# DMS-273 = system: DMS-273
# KM-20L2 = system: KM-20L2
# LXFL 529 = system: LXFL 529
# M19-MEL = system: M19-MEL
# SNB-78 = system: SNB-78
smiles,measurement,setting,value
CC(=O)c1c(SCCN2CCCC2)n(-c2ccccc2)c(=S)n(-c2ccccc2)c1=O,GI50,786-0,1.6 µM (inactive)
same,GI50,A498,14.3 µM (inactive)
same,GI50,A549,5.82 µM (inactive)
same,GI50,ACHN,1.72 µM (inactive)
same,GI50,BT-549,14.5 µM (inactive)
same,GI50,CAKI-1,4.34 µM (inactive)
same,GI50,CCRF-CEM,1.7 µM (inactive)
same,GI50,COLO 205,1.76 µM (inactive)
same,GI50,DU-145,2.75 µM (inactive)
same,GI50,EKVX,17 µM (inactive)
same,GI50,HCC 2998,3.1 µM (inactive)
same,GI50,HCT-116,6.73 µM (inactive)
same,GI50,HCT-15,4.01 µM
same,GI50,HL-60,3.55 µM (inactive)
same,GI50,HOP-62,22.4 µM (inactive)
same,GI50,HOP-92,3.27 µM (inactive)
same,GI50,HT-29,6.62 µM (inactive)
same,GI50,Hs-578T,17.6 µM (inactive)
same,GI50,IGROV-1,7.03 µM (inactive)
same,GI50,K562,2.72 µM (inactive)
same,GI50,KM12,23.2 µM (inactive)
same,GI50,LOX IMVI,2.49 µM (inactive)
same,GI50,M14,2.39 µM (inactive)
same,GI50,MCF7,1.33 µM (inactive)
same,GI50,MDA-MB-231,8.83 µM (inactive)
same,GI50,MDA-MB-435,5.9 µM (inactive)
same,GI50,MDA-N,7.03 µM (inactive)
same,GI50,MOLT-4,2.41 µM (inactive)
same,GI50,Malme-3M,3.85 µM (inactive)
same,GI50,NCI-H226,20.9 µM (inactive)
same,GI50,NCI-H23,17.4 µM (inactive)
same,GI50,NCI-H460,17.9 µM (inactive)
same,GI50,NCI-H522,2.48 µM (inactive)
same,GI50,NCI/ADR-RES,26.9 µM (inactive)
same,GI50,OVCAR-3,2.5 µM (inactive)
same,GI50,OVCAR-4,29 µM (inactive)
same,GI50,OVCAR-5,33.7 µM (inactive)
same,GI50,OVCAR-8,9.48 µM (inactive)
same,GI50,PC-3,3.56 µM (inactive)
same,GI50,RPMI-8226,1.51 µM (inactive)
same,GI50,RXF 393,2.3 µM (inactive)
same,GI50,SF-268,16.4 µM (inactive)
same,GI50,SF-295,> 76 µM (inactive)
same,GI50,SF-539,6.12 µM (inactive)
same,GI50,SK-MEL-28,6.11 µM (inactive)
same,GI50,SK-MEL-2,21.6 µM (inactive)
same,GI50,SK-MEL-5,8.55 µM (inactive)
same,GI50,SK-OV-3,45.3 µM (inactive)
same,GI50,SN12C,7.16 µM (inactive)
same,GI50,SNB-19,28.4 µM (inactive)
same,GI50,SNB-75,14.6 µM (inactive)
same,GI50,SR,2.28 µM (inactive)
same,GI50,SW-620,2.34 µM (inactive)
same,GI50,T47D,2.11 µM (inactive)
same,GI50,TK-10,3.64 µM (inactive)
same,GI50,U-251,21.1 µM (inactive)
same,GI50,UACC-257,3.46 µM (inactive)
same,GI50,UACC-62,6.93 µM (inactive)
same,GI50,UO-31,1.4 µM (inactive)
NCCCSCC(=O)O,GI50,786-0,> 100 µM (inactive)
same,GI50,A549,> 100 µM (inactive)
same,GI50,ACHN,> 100 µM (inactive)
same,GI50,CAKI-1,> 100 µM (inactive)
same,GI50,COLO 205,> 100 µM (inactive)
same,GI50,DMS-114,> 100 µM (inactive)
same,GI50,DMS-273,> 100 µM (inactive)
same,GI50,EKVX,> 100 µM (inactive)
same,GI50,HCC 2998,> 100 µM (inactive)
same,GI50,HCT-116,> 100 µM (inactive)
same,GI50,HCT-15,> 100 µM
same,GI50,HOP-92,> 100 µM (inactive)
same,GI50,HT-29,> 100 µM (inactive)
same,GI50,IGROV-1,> 100 µM (inactive)
same,GI50,K562,> 100 µM (inactive)
same,GI50,KM-20L2,> 100 µM (inactive)
same,GI50,KM12,> 100 µM (inactive)
same,GI50,LXFL 529,> 100 µM (inactive)
same,GI50,M19-MEL,> 100 µM (inactive)
same,GI50,MOLT-4,> 100 µM (inactive)
same,GI50,Malme-3M,> 100 µM (inactive)
same,GI50,NCI-H226,> 100 µM (inactive)
same,GI50,NCI-H23,> 100 µM (inactive)
same,GI50,NCI-H522,> 100 µM (inactive)
same,GI50,OVCAR-3,> 100 µM (inactive)
same,GI50,OVCAR-4,> 100 µM (inactive)
same,GI50,OVCAR-5,> 100 µM (inactive)
same,GI50,OVCAR-8,> 100 µM (inactive)
same,GI50,RPMI-8226,> 100 µM (inactive)
same,GI50,RXF 393,> 100 µM (inactive)
same,GI50,SF-268,> 100 µM (inactive)
same,GI50,SF-295,> 100 µM (inactive)
same,GI50,SF-539,> 100 µM (inactive)
same,GI50,SK-MEL-28,> 100 µM (inactive)
same,GI50,SK-MEL-2,> 100 µM (inactive)
same,GI50,SK-MEL-5,> 100 µM (inactive)
same,GI50,SK-OV-3,> 100 µM (inactive)
same,GI50,SN12C,> 100 µM (inactive)
same,GI50,SNB-19,> 100 µM (inactive)
same,GI50,SNB-75,> 100 µM (inactive)
same,GI50,SNB-78,> 100 µM (inactive)
same,GI50,SW-620,> 100 µM (inactive)
same,GI50,TK-10,> 100 µM (inactive)
same,GI50,U-251,> 100 µM (inactive)
same,GI50,UACC-257,> 100 µM (inactive)
same,GI50,UACC-62,> 100 µM (inactive)
same,GI50,UO-31,> 100 µM (inactive)
